Data on 15 compounds can be found in patent publication US20240409585A1, “MACROCYCLIC IMMUNOMODULATORS” (priority 2021, published 2024).

Structures are written as SMILES. Bridge positions count the residues as written; N and C are the ends. Square brackets hold non-standard residues; d marks the D form. Peptide text beside a SMILES is read from it. * marks the point of attachment. ξ: configuration not given here. Ala(indol-4-yl) = N[C@@H](Cc1cccc2[nH]ccc12)C(=O)O; Trp(6-F) = N[C@@H](Cc1c[nH]c2cc(F)ccc12)C(=O)O; dPhe(4-CN) = N#Cc1ccc(C[C@@H](N)C(=O)O)cc1; Bip = N[C@@H](Cc1ccc(-c2ccccc2)cc1)C(=O)O; Phe(3-CN) = N#Cc1cccc(C[C@H](N)C(=O)O)c1; Phe(3-Cl) = N[C@@H](Cc1cccc(Cl)c1)C(=O)O; Phe(3-F) = N[C@@H](Cc1cccc(F)c1)C(=O)O; Phe(3-Me) = Cc1cccc(C[C@H](N)C(=O)O)c1; Dopa = N[C@@H](Cc1ccc(O)c(O)c1)C(=O)O; Bta = N[C@@H](Cc1csc2ccccc12)C(=O)O; Val(3-OH) = CC(C)(O)[C@H](N)C(=O)O; mTyr = N[C@@H](Cc1cccc(O)c1)C(=O)O; 2Pal = N[C@@H](Cc1ccccn1)C(=O)O; 4Pal = N[C@@H](Cc1ccncc1)C(=O)O; 2Thi = N[C@@H](Cc1cccs1)C(=O)O; Cha = N[C@@H](CC1CCCCC1)C(=O)O; Cit = NC(=O)NCCC[C@H](N)C(=O)O; Ile(3ξ) = CCC(C)[C@H](N)C(=O)O; Thr(3ξ) = CC(O)[C@H](N)C(=O)O; Carboxymethyl = O=C(O)C*; NMeA = CN[C@@H](C)C(=O)O; Nle = CCCC[C@H](N)C(=O)O; Orn = NCCC[C@H](N)C(=O)O; Dab = NCC[C@H](N)C(=O)O; Dap = NC[C@H](N)C(=O)O; ξL = CC(C)CC(N)C(=O)O

For the assay, the target named is T1, PE-labeled human PD-L1-Ig binding to Jurkat cell line over-expressing human PD-1 (Jurkat-PD-1) (Homo sapiens, UniProt Q15116).
T1 construct: expressed in transfected cells; host or cells: Jurkat
T1 sequence (Q15116 25-288): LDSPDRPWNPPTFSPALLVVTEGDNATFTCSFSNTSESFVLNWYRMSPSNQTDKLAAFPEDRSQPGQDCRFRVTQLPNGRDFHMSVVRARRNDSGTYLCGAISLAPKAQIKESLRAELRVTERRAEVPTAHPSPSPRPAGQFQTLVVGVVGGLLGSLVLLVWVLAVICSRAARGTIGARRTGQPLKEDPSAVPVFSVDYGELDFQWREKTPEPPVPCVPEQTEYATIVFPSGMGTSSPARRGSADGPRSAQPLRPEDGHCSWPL
Kind of assay: Jurkat-PD-1 Cell Binding High-Content Screening Assay (CBA): Method 1. Particulars: Jurkat-hPD-1 cells, PE-labeled PD-L1-Ig 20 nM final; read-out: Jurkat HPDL1 PD1 IC50 (uM) (Method 1).
Usually IC50 stands for the concentration needed to halve the response being measured. As for `CCC(C)[C@@H]1NC(=O)[C@H](Cc2ccc(-c3ccccc3)cc2)NC(=O)[C@H](C(C)C)NC(=O)[C@H](Cc2c[nH]c3ccccc23)NC(=O)[C@H](CC(=O)O)NC(=O)[C@H](Cc2ccc(OCC(=O)O)cc2)NC(=O)[C@H](C(C)O)NC(=O)CSC[C@@H](C(=O)N[C@@H](CCN)C(N)=O)NC(=O)[C@H](C(C)O)NC(=O)[C@H](C(C)C)NC(=O)[C@H](CC2CCCCC2)NC(=O)[C@H](CCN)NC(=O)C(CC(C)C)NC(=O)[C@H](C)N(C)C1=O` (stereo partly drawn) [Compound 2114] ({CH2CO}-[Thr(3ξ)]Y(Carboxymethyl)DWV[Bip][Ile(3ξ)][NMeA][ξL][Dab][Cha]V[Thr(3ξ)]C[Dab]-NH2; thioether N-14), the IC50 worked out at 0.02 µM.
For `CC(C)C[C@@H]1NC(=O)[C@H](CCN)NC(=O)[C@@H](CC(C)C)NC(=O)[C@H](C)N(C)C(=O)[C@H](Cc2cnc[nH]2)NC(=O)[C@H](Cc2ccc(-c3ccccc3)cc2)NC(=O)[C@H](C(C)C)NC(=O)[C@H](Cc2c[nH]c3ccccc23)NC(=O)[C@H](CC(=O)O)NC(=O)[C@H](Cc2cccc(Cl)c2)NC(=O)[C@H](CN)NC(=O)CSC[C@@H](C(=O)N[C@@H](C)C(N)=O)NC(=O)[C@H]([C@@H](C)O)NC(=O)[C@H](C(C)C)NC1=O` [Compound 1440] ({CH2CO}-[Dap][Phe(3-Cl)]DWV[Bip]H[NMeA][dL][Dab]LVTCA-NH2; thioether N-14) the value was 0.19 µM; for `CC(C)C[C@@H]1NC(=O)[C@H](CCCNC(=N)N)NC(=O)[C@@H](CC(C)C)NC(=O)[C@H](C)N(C)C(=O)[C@H](CCCNC(=N)N)NC(=O)[C@H](Cc2ccc(-c3ccccc3)cc2)NC(=O)[C@H](C(C)C)NC(=O)[C@H](Cc2c[nH]c3cc(F)ccc23)NC(=O)[C@H](CC(=O)O)NC(=O)[C@H](Cc2ccc(O)cc2)NC(=O)[C@H](Cc2ccccc2)NC(=O)CSC[C@@H](C(=O)N[C@@H](C)C(N)=O)NC(=O)[C@H]([C@@H](C)O)NC(=O)[C@H](C(C)C)NC1=O` [Compound 1079] ({CH2CO}-FYD[Trp(6-F)]V[Bip]R[NMeA][dL]RLVTCA-NH2; thioether N-14), 0.25 µM; for `CCNC(=O)[C@H](CCN)NC(=O)[C@@H]1CSCC(=O)N[C@@H](Cc2cccs2)C(=O)N[C@@H](Cc2cccc(C#N)c2)C(=O)N[C@@H](CC(=O)O)C(=O)N[C@@H](Cc2cccc(C)c2)C(=O)N[C@@H](Cc2cccc(F)c2)C(=O)N[C@@H](Cc2ccc(-c3ccccc3)cc2)C(=O)N[C@@H](Cc2ccc(OCC(=O)O)cc2)C(=O)N(C)[C@@H](C)C(=O)N[C@H](CC(C)C)C(=O)N[C@@H](CCN)C(=O)N[C@@H](CC2CCCCC2)C(=O)N[C@@H](C(C)(C)O)C(=O)N[C@@H](CO)C(=O)N1` [Compound 1841] ({CH2CO}-[2Thi][Phe(3-CN)]D[Phe(3-Me)][Phe(3-F)][Bip]Y(Carboxymethyl)[NMeA][dL][Dab][Cha][Val(3-OH)]SC[Dab]-NHEt; thioether N-14), 0.02 µM.
For `CCC(C)[C@@H]1NC(=O)[C@H](Cc2ccc(-c3ccccc3)cc2)NC(=O)[C@H](C(C)C)NC(=O)[C@H](Cc2c[nH]c3ccccc23)NC(=O)[C@H](CC(=O)O)NC(=O)[C@H](Cc2ccc(O)cc2)NC(=O)[C@H](Cc2cccc3[nH]ccc23)NC(=O)CSC[C@@H](C(=O)N[C@@H](C)C(N)=O)NC(=O)[C@H](C(C)O)NC(=O)[C@H](C(C)C)NC(=O)[C@H](CC2CCCCC2)NC(=O)[C@H](CCN)NC(=O)[C@@H](CC(C)C)NC(=O)[C@H](C)N(C)C1=O` (stereo partly drawn) [Compound 2053] ({CH2CO}-[Ala(indol-4-yl)]YDWV[Bip][Ile(3ξ)][NMeA][dL][Dab][Cha]V[Thr(3ξ)]CA-NH2; thioether N-14) the value was 0.03 µM; for `CC(C)C[C@@H]1NC(=O)[C@H](CCN)NC(=O)[C@@H](CC(C)C)NC(=O)[C@H](C)N(C)C(=O)[C@H](CCCNC(N)=O)NC(=O)[C@H](Cc2ccc(-c3ccccc3)cc2)NC(=O)[C@H](C(C)C)NC(=O)[C@H](Cc2c[nH]c3ccccc23)NC(=O)[C@H](CC(=O)O)NC(=O)[C@H](Cc2cccc(C#N)c2)NC(=O)[C@H](CC(N)=O)NC(=O)CSC[C@@H](C(=O)N[C@@H](C)C(N)=O)NC(=O)[C@H]([C@@H](C)O)NC(=O)[C@H](C(C)C)NC1=O` [Compound 1314] ({CH2CO}-N[Phe(3-CN)]DWV[Bip][Cit][NMeA][dL][Dab]LVTCA-NH2; thioether N-14), 0.04 µM; for `CC(C)C[C@@H]1NC(=O)[C@H](CCN)NC(=O)[C@@H](CC(C)C)NC(=O)[C@H](C)N(C)C(=O)[C@H](C(C)C)NC(=O)[C@H](Cc2ccc(-c3ccccc3)cc2)NC(=O)[C@H](C(C)C)NC(=O)[C@H](Cc2c[nH]c3ccccc23)NC(=O)[C@H](CC(=O)O)NC(=O)[C@H](Cc2cccc(O)c2)NC(=O)[C@H](CC(N)=O)NC(=O)CSC[C@@H](C(=O)N[C@@H](C)C(N)=O)NC(=O)[C@H]([C@@H](C)O)NC(=O)[C@H](C(C)C)NC1=O` [Compound 1384] ({CH2CO}-N[mTyr]DWV[Bip]V[NMeA][dL][Dab]LVTCA-NH2; thioether N-14), 0.02 µM.
For `CC(C)C[C@@H]1NC(=O)[C@H](CCCNC(=N)N)NC(=O)[C@@H](Cc2ccc(C#N)cc2)NC(=O)[C@H](C)N(C)C(=O)[C@H](CCCNC(=N)N)NC(=O)[C@H](Cc2ccc(-c3ccccc3)cc2)NC(=O)[C@H](C(C)C)NC(=O)[C@H](Cc2c[nH]c3ccccc23)NC(=O)[C@H](CC(=O)O)NC(=O)[C@H](Cc2ccc(O)cc2)NC(=O)[C@H](Cc2ccccc2)NC(=O)CSC[C@@H](C(=O)N[C@@H](C)C(N)=O)NC(=O)[C@H]([C@@H](C)O)NC(=O)[C@H](C(C)C)NC1=O` [Compound 1107] ({CH2CO}-FYDWV[Bip]R[NMeA][dPhe(4-CN)]RLVTCA-NH2; thioether N-14) the value was 0.07 µM; for `CC(C)C[C@@H]1NC(=O)[C@H](CCN)NC(=O)[C@@H](CC(C)C)NC(=O)[C@H](C)N(C)C(=O)[C@H](CCCNC(N)=O)NC(=O)[C@H](Cc2ccc(-c3ccccc3)cc2)NC(=O)[C@H](C(C)C)NC(=O)[C@H](Cc2c[nH]c3ccccc23)NC(=O)[C@H](CC(=O)O)NC(=O)[C@H](Cc2ccc(O)cc2)NC(=O)[C@H](Cc2ccccn2)NC(=O)CSC[C@@H](C(=O)N[C@@H](C)C(N)=O)NC(=O)[C@H]([C@@H](C)O)NC(=O)[C@H](C(C)C)NC1=O` [Compound 1327] ({CH2CO}-[2Pal]YDWV[Bip][Cit][NMeA][dL][Dab]LVTCA-NH2; thioether N-14), 0.08 µM; for `Cc1cccc(C[C@@H]2NC(=O)[C@H](CC(=O)O)NC(=O)[C@H](Cc3ccncc3)NC(=O)[C@H](Cc3ccc(OCC(=O)O)cc3)NC(=O)CSC[C@@H](C(=O)N[C@@H](C)C(N)=O)NC(=O)[C@H](CO)NC(=O)[C@H](C(C)C)NC(=O)[C@H](CC(C)C)NC(=O)[C@H](CC(N)=O)NC(=O)[C@@H](CC(C)C)NC(=O)[C@H](C)N(C)C(=O)[C@H](C(C)C)NC(=O)[C@H](Cc3ccc(-c4ccccc4)cc3)NC(=O)[C@H](CC(C)C)NC2=O)c1` [Compound 1589] ({CH2CO}-Y(Carboxymethyl)[4Pal]D[Phe(3-Me)]L[Bip]V[NMeA][dL]NLVSCA-NH2; thioether N-14), 0.03 µM.
Turning to `CCC(C)[C@@H]1NC(=O)[C@H](Cc2ccc(-c3ccccc3)cc2)NC(=O)[C@H](C(C)C)NC(=O)[C@H](Cc2c[nH]c3ccccc23)NC(=O)[C@H](CC(=O)O)NC(=O)[C@H](Cc2ccc(OCC(=O)O)cc2)NC(=O)[C@H](Cc2cnc[nH]2)NC(=O)CSC[C@@H](C(=O)N[C@@H](CCN)C(N)=O)NC(=O)[C@H](CO)NC(=O)[C@H](C(C)(C)O)NC(=O)[C@H](CC2CCCCC2)NC(=O)[C@H](CCN)NC(=O)[C@@H](CC(C)C)NC(=O)[C@H](C)N(C)C1=O` (stereo partly drawn) [Compound 2204] ({CH2CO}-HY(Carboxymethyl)DWV[Bip][Ile(3ξ)][NMeA][dL][Dab][Cha][Val(3-OH)]SC[Dab]-NH2; thioether N-14), the concentration for half-maximal inhibition (IC50) is 0.01 µM.
`CCCC[C@@H]1NC(=O)[C@H](CCN)NC(=O)[C@@H](CC(C)C)NC(=O)[C@H](C)N(C)C(=O)[C@H](CCCN)NC(=O)[C@H](Cc2ccc(-c3ccccc3)cc2)NC(=O)[C@H](C(C)C)NC(=O)[C@H](Cc2c[nH]c3ccccc23)NC(=O)[C@H](CC(=O)O)NC(=O)[C@H](Cc2ccc(O)cc2)NC(=O)[C@H](CC(N)=O)NC(=O)CSC[C@@H](C(=O)N[C@@H](C)C(N)=O)NC(=O)[C@H]([C@@H](C)O)NC(=O)[C@H](C(C)C)NC1=O` [Compound 1267] ({CH2CO}-NYDWV[Bip][Orn][NMeA][dL][Dab][Nle]VTCA-NH2; thioether N-14): the IC50 came to 0.26 µM.
In the case of `CC(C)C[C@@H]1NC(=O)[C@H](Cc2c[nH]c3ccccc23)NC(=O)[C@H](CC(=O)O)NC(=O)[C@H](Cc2ccc(O)c(O)c2)NC(=O)[C@H](Cc2ccccc2)NC(=O)CSC[C@@H](C(=O)N[C@@H](C)C(N)=O)NC(=O)[C@H](CO)NC(=O)[C@H](C(C)C)NC(=O)[C@H](CC(C)C)NC(=O)[C@H](CC(N)=O)NC(=O)[C@@H](C)NC(=O)[C@H](C)N(C)C(=O)[C@H](C(C)C)NC(=O)[C@H](Cc2ccc(-c3ccccc3)cc2)NC1=O` [Compound 1724] ({CH2CO}-F[Dopa]DWL[Bip]V[NMeA][dA]NLVSCA-NH2; thioether N-14) it was 0.01 µM; in that of `CC(C)C[C@@H]1NC(=O)[C@H](CCCN)NC(=O)[C@H](Cc2csc3ccccc23)NC(=O)[C@H](C)N(C)C(=O)[C@H](CCC(=O)O)NC(=O)[C@H](Cc2ccc(-c3ccccc3)cc2)NC(=O)[C@H](C(C)C)NC(=O)[C@H](Cc2c[nH]c3ccccc23)NC(=O)[C@H](CC(=O)O)NC(=O)[C@H](Cc2ccc(O)cc2)NC(=O)[C@H](Cc2ccccc2)NC(=O)CSC[C@@H](C(=O)N[C@@H](C)C(N)=O)NC(=O)[C@H]([C@@H](C)O)NC(=O)[C@H](C(C)C)NC1=O` [Compound 1132] ({CH2CO}-FYDWV[Bip]E[NMeA][Bta][Orn]LVTCA-NH2; thioether N-14), 0.16 µM.
In the case of `CC(C)C[C@@H]1NC(=O)[C@H](CCCCN)NC(=O)[C@@H](CC(C)C)NC(=O)[C@H](C)N(C)C(=O)[C@H](CCCNC(=N)N)NC(=O)[C@H](Cc2ccc(-c3ccccc3)cc2)NC(=O)[C@H](C(C)C)NC(=O)[C@H](Cc2c[nH]c3ccccc23)NC(=O)[C@H](CC(=O)O)NC(=O)[C@H](Cc2ccc(O)cc2)NC(=O)[C@H](Cc2ccccc2)NC(=O)CSC[C@@H](C(=O)N[C@@H](CCC(=O)O)C(N)=O)NC(=O)[C@H]([C@@H](C)O)NC(=O)[C@H](C(C)C)NC1=O` [Compound 1168] ({CH2CO}-FYDWV[Bip]R[NMeA][dL]KLVTCE-NH2; thioether N-14) it was 0.12 µM.
